According to ChEMBL document CHEMBL3400048, “N-acylated sulfonamide congeners of fosmidomycin lack any inhibitory activity against DXR” (Bioorg Med Chem Lett, 2015):
The source made the active and inactive calls. The calls are words filed in the database; no cut-off is given here.

What was measured:
Plasmodium falciparum = assay: Antimicrobial activity against Plasmodium falciparum K1 at 64 uM; type: functional, organism-based
Leishmania infantum = assay: Antimicrobial activity against Leishmania infantum at 64 uM; type: functional, organism-based
Escherichia coli = assay: Antimicrobial activity against Escherichia coli at 64 uM; type: functional, organism-based
Staphylococcus aureus = assay: Antimicrobial activity against Staphylococcus aureus at 64 uM; type: functional, organism-based
Trichophyton rubrum = assay: Antimicrobial activity against Trichophyton rubrum at 64 uM; type: functional, organism-based
Pseudomonas aeruginosa = assay: Antimicrobial activity against Pseudomonas aeruginosa at 64 uM; type: functional, organism-based
Trypanosoma cruzi = assay: Antimicrobial activity against Trypanosoma cruzi at 64 uM; type: functional, organism-based
Candida albicans = assay: Antimicrobial activity against Candida albicans at 64 uM; type: functional, organism-based
Trypanosoma brucei = assay: Antimicrobial activity against Trypanosoma brucei at 64 uM; type: functional, organism-based
[1] = biological target: T1, 1-deoxy-D-xylulose 5-phosphate reductoisomerase (Escherichia coli K-12) (UniProt P45568); assay: Inhibition of Escherichia coli DXR activity using DXP as substrate assessed as residual activity preincubated at 100 uM for 5 mins before substrate addition measured every 3 seconds for 180 seconds by spectrophotometric assay
T1 sequence (whole entry): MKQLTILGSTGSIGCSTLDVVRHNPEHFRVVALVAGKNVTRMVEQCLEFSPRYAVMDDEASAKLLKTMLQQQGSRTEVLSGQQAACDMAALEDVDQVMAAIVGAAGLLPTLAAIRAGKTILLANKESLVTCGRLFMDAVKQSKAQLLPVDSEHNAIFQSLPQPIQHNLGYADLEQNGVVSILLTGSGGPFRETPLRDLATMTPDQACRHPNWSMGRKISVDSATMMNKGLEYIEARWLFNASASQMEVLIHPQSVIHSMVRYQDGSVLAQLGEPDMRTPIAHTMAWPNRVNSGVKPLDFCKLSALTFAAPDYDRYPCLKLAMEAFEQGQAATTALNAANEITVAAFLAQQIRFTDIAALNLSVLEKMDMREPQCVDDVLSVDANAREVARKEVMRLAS

MRC5 = assay: Cytotoxicity against human MRC5 cells at 64 uM; type: cell-based; details: mrc5, 64 µM
Aspergillus fumigatus = assay: Antimicrobial activity against Aspergillus fumigatus at 64 uM; type: functional, organism-based

Compound	Activity (Plasmodium falciparum)	Activity (Leishmania infantum)	Activity (Escherichia coli)	Activity (Staphylococcus aureus)	Activity (Trichophyton rubrum)	Activity (Pseudomonas aeruginosa)	Activity (Trypanosoma cruzi)	Activity (Candida albicans)	Activity (Trypanosoma brucei)	Activity [1] [%]	Activity (MRC5)	Activity (Aspergillus fumigatus)
CC(=O)N(O)CCCS(=O)(=O)NC(=O)Cc1ccccc1	inactive	inactive	inactive	inactive	inactive	inactive	inactive	inactive	inactive	100	Non-toxic	inactive
CC(=O)N(O)CCCS(=O)(=O)NC(=O)c1ccccc1	inactive	inactive	inactive	inactive	inactive	inactive	inactive	inactive	inactive	100	Non-toxic	inactive
CC(=O)N(O)CCCS(=O)(=O)NC(=O)CCc1ccccc1	inactive	inactive	inactive	inactive	inactive	inactive	inactive	inactive	inactive	100	Non-toxic	inactive
CC(=O)NS(=O)(=O)CCCN(O)C(C)=O	inactive	inactive	inactive	inactive	inactive	inactive	inactive	inactive	inactive	100	Non-toxic	inactive
